Where two headings read alike, the source gives them in different places.
B1: antibody-drug conjugate (1): humanized anti-hTROP2 antibody (SEQ ID NO: 1 residues 20-470, SEQ ID NO: 2 residues 21-234) conjugated to the exatecan-derivative drug-linker via a thioether bond (conjugate, chains of the INN, looked up)
VH: QVQLVQSGAEVKKPGASVKVSCKASGYTFTTAGMQWVRQAPGQGLEWMGWINTHSGVPKYAEDFKGRVTISADTSTSTAYLQLSSLKSEDTAVYYCARSGFGSSYWYFDVWGQGTLVTVSS
VL: DIQMTQSPSSLSASVGDRVTITCKASQDVSTAVAWYQQKPGKAPKLLIYSASYRYTGVPSRFSGSGSGTDFTLTISSLQPEDFAVYYCQQHYITPLTFGQGTKLEIK
modifications: exatecan-derivative drug-linker

What was measured:
[1] = test system: Human breast cancer cell line HCC38; assay: Cell proliferation inhibition test upon SLFN11 knockdown, HCC38; assay type: cell-based; conditions: for Cell proliferation inhibitory effect upon SLFN11 knockdown: HCC38 cell lines, SLFN11 siRNA vs Non-targeting Control; for Fold change (SLFN11/Non-targeting Control): ratio of IC50
Protocol: (§1) Human breast cancer cell line HCC38 was obtained from ATCC and used for evaluation. HCC38 cells suspended at 2×10^5 cells/mL in RPMI-1640 medium containing 10% bovine fetal serum were seeded in a 10 cm cell culture dish at 10 mL/dish. Twenty-four hours after seeding, 100 pmol of ON-TARGETplus SLFN11 siRNA (Dharmacon Inc.) or ON-TARGETplus Non-targeting Control Pool (Dharmacon Inc.) and 30 μL of Lipofectamine™ RNAiMAX Transfection Reagent (Thermo Fisher Scientific Inc.) were suspended in 1 mL of Opti-MEM medium, and the entire amount of the suspension was added to the medium. After 72 hours, the medium was removed and the dish was washed with PBS, then the cells were dissociated and recovered from the dish using 1 mL of TrypLE™ Express. The recovered cells were suspended at 5×10^4 cells/mL in RPMI-1640 medium containing 10% bovine fetal serum, and seeded in a 96-well cell culture plate at 100 μL/well. Twenty-four hours after seeding, the medium was replaced with a medium containing 100 nM, 33 nM, 11 nM, 3.7 nM, 1.2 nM, 0.41 nM, 0.13 nM, 0.045 nM, or 0 nM of compound (1) or antibody-drug conjugate (1) at 100 μL/well. The molar concentration of antibody-drug conjugate (1) was calculated by setting the average molecular weight to 150,000. Cells were all cultured at 37° C. under 5% CO2. After 72 hours from the medium replacement, ATPlite 1 step detection system (PerkinElmer Inc.) was added at 100 μL/well. The wells were incubated at room temperature for 10 minutes, then the luminescence intensity of each well was measured.
(§2) The cell growth inhibition rate (%) at each condition was calculated using the following calculation formula: Cell growth inhibition rate (%)=100×(1−T/C) • T: Average luminescence intensity of each well to which specimen was added • C: Average luminescence intensity of each well to which 0 nM specimen was added
(§3) The 50% inhibitory concentration at each condition was calculated by fitting to the following calculation formula: Cell viability (%)=(Emax−Emin)×Specimen concentration^γ/((max−50)/(50−Emin)×IC50^γ+Specimen concentration^γ)+Emin • Emax: maximum cell growth inhibition rate (%) • Emin: minimum cell growth inhibition rate (%) • IC50: 50% inhibitory concentration • γ: Hill coefficient
(§4) The fitting to the calculation formula was performed using SAS Systems Release 9.2 (SAS Institute Inc.).

[2] = test system: Human lung cancer cell line NCI-H1781; assay: Cell proliferation inhibition test upon SLFN11 knockdown, NCI-H1781; assay type: cell-based; conditions: for Cell proliferation inhibitory effect upon SLFN11 knockdown: NCI-H1781 cell lines, SLFN11 siRNA vs Non-targeting Control; for Fold change (SLFN11/Non-targeting Control): ratio of IC50
Protocol: as §1, with “lung” for “breast”, “NCI-H1781” for “HCC38”, “2×10^3” for “2×10^5”
as §2
as §3, with “concentration^γ/((Emax−50)/(50−Emin)×IC50^γ+Specimen” for “concentration^γ/((max−50)/(50−Emin)×IC50^γ+Specimen”
as §4

Molecule | Cell proliferation inhibitory effect upon SLFN11 knockdown [1] | Fold change (SLFN11/Non-targeting Control) ([1]; HCC38 cells) | IC50 ([1]; Homo sapiens, HCC38, 72 h, read-out: IC50 (nM) Non-targeting Control Pool) | IC50 ([1]; Homo sapiens, HCC38, 72 h, read-out: IC50 (nM) SLFN11 siRNA) | IC50 ([2]; Homo sapiens, NCI-H1781, 72 h, read-out: IC50 (nM) Non-targeting Control Pool) | IC50 ([2]; Homo sapiens, NCI-H1781, 72 h, read-out: IC50 (nM) SLFN11 siRNA) | Cell proliferation inhibitory effect upon SLFN11 knockdown [2] | Fold change (SLFN11/Non-targeting Control) ([2]; NCI-H1781 cells) | IC50 ([1]; HCC38 cells, Non-targeting Control Pool, 72 hours, ATPlite, read-out: IC50 (nM) Non-targeting Control Pool) | IC50 ([1]; HCC38 cells, SLFN11 siRNA knockdown, 72 hours, ATPlite, read-out: IC50 (nM) SLFN11 siRNA) | IC50 ([2]; NCI-H1781 cells, Non-targeting Control Pool, 72 hours, ATPlite, read-out: IC50 (nM) Non-targeting Control Pool) | IC50 ([2]; NCI-H1781 cells, SLFN11 siRNA knockdown, 72 hours, ATPlite, read-out: IC50 (nM) SLFN11 siRNA)
CC[C@@]1(O)C(=O)OCc2c1cc1n(c2=O)Cc2c-1nc1cc(F)c(C)c3c1c2[C@@H](NC(=O)CO)CC3 [Compound (1)] | attenuated by SLFN11 knockdown | 2.6 | 1.6 nM | 4.2 nM | 3.3 nM | 15 nM | attenuated by SLFN11 knockdown | 4.5 |  |  |  | 
B1 | attenuated by SLFN11 knockdown | >1.8 |  |  |  |  | attenuated by SLFN11 knockdown | >12.5 | 56.7 nM | > 100 nM | 8 nM | > 100 nM

From patent US12312641B2, “Sensitivity marker for antibody-drug conjugate” (priority 2018, dated 2025)
